PubChem BioAssay (NCI)
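These data come from cells grown in 96-well plates and exposed to compound for 48 hours at five concentrations. GI50 marks 50% less growth. TGI is the concentration that stops growth completely.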

Tests used:
Test in all cases: inhibition of tumour cell growth, NCI panel, 48 h
HL-60(TB) leukemia = system: HL-60(TB) leukemia
SK-MEL-5 melanoma = system: SK-MEL-5 melanoma
CCRF-CEM leukemia = system: CCRF-CEM leukemia
UACC-62 melanoma = system: UACC-62 melanoma
SK-MEL-28 melanoma = system: SK-MEL-28 melanoma
HCC-2998 colon = system: HCC-2998 colon
RXF 393 renal = system: RXF 393 renal
SR leukemia = system: SR leukemia
HOP-92 NSCLC = system: HOP-92 NSCLC
NCI-H226 lung = system: NCI-H226 lung

SMILES | TGI (HL-60(TB) leukemia) [µM] | TGI (SK-MEL-5 melanoma) [µM] | TGI (CCRF-CEM leukemia) [µM] | TGI (UACC-62 melanoma) [µM] | TGI (SK-MEL-28 melanoma) [µM] | TGI (HCC-2998 colon) [µM] | TGI (RXF 393 renal) [µM] | TGI (SR leukemia) [µM] | TGI (HOP-92 NSCLC) [µM] | TGI (NCI-H226 lung) [µM] | GI50 (HL-60(TB) leukemia) [µM] | GI50 (CCRF-CEM leukemia) [µM] | GI50 (UACC-62 melanoma) [µM] | GI50 (SK-MEL-28 melanoma) [µM] | GI50 (HCC-2998 colon) [µM] | GI50 (RXF 393 renal) [µM] | GI50 (SR leukemia) [µM] | GI50 (HOP-92 NSCLC) [µM] | GI50 (NCI-H226 lung) [µM] | GI50 (SK-MEL-5 melanoma) [µM]
NC(N)=NC(N)=Nc1ccc(C(=O)O)cc1 | > 100 | > 100 | > 100 | > 100 | > 100 | > 100 | > 100 | > 100 | > 100 | > 100 | – | – | – | – | – | – | – | – | – | –
CCCCCCCC(=O)[O-].CCCCCCCC(=O)[O-].N.N.N.N.[Co+3].[O-][Cl+3]([O-])([O-])[O-] | > 100 | – | > 100 | > 100 | > 100 | > 100 | > 100 | > 100 | > 100 | > 100 | > 100 | > 100 | > 100 | > 100 | > 100 | 74.6 | 69.9 | > 100 | > 100 | –
O=C(c1ccccc1)c1nnn(Cc2ccccc2Cn2nnc(C(=O)c3ccccc3)c2C(=O)c2ccccc2)c1C(=O)c1ccccc1 | > 100 | > 100 | > 100 | > 100 | > 100 | > 100 | – | > 100 | > 100 | > 100 | – | – | – | – | – | – | – | – | – | –
Nc1nc(Cl)nc2c1ncn2C1OC(CO)C(O)C1F (stereo not given) | > 100 | > 8.7 | 0.424 | 1.7 | > 100 | – | > 100 | 5.26 | > 68 | > 17.3 | 0.308 | – | 0.145 | > 9.44 | < 0.0304 | 12.8 | 1.67 | 0.124 | 0.216 | 0.168
CN1CCN(Cc2ccc(NC(=O)c3[nH]ncc3Nc3ncnc4[nH]ccc34)cc2)CC1 | 0.626 | 0.778 | 5.68 | 1.82 | 4.24 | 1.42 | 0.464 | 0.708 | 0.741 | 1.87 | 0.27 | 0.254 | 0.411 | 0.411 | 0.367 | 0.199 | 0.229 | 0.431 | 0.205 | 0.25
FC(F)c1ncc(-c2ccc(C(F)(F)F)cc2)c(NC2CCCCCC2)n1 | > 10 | > 10 | > 10 | > 10 | > 10 | > 10 | > 10 | > 10 | > 10 | > 10 | > 10 | > 10 | > 10 | > 10 | > 10 | > 10 | > 10 | > 10 | > 10 | > 10
CN1CCN(CCCOc2ccc3nc(Nc4ccc(F)c(F)c4)ccc3c2)CC1 | 4.2 | 2.88 | 11.6 | – | 3.2 | 3.31 | 4.36 | 6.95 | 3.6 | 29.9 | 1.26 | 1.95 | – | 1.56 | 1.71 | 1.52 | 1.71 | 1.1 | 10.8 | 1.47
CC(C)N(C(=O)C12C3C4C5(C(=O)O)C(C1C35I)C42C(=O)O)C(C)C (stereo not given) | > 100 | > 100 | > 100 | > 100 | > 100 | > 100 | – | > 100 | > 100 | > 100 | – | – | – | – | – | – | – | – | – | –
CC(C)C1(NC(=O)C2CC3c4cccc5[nH]cc(c45)CC3N(C)C2)OC2(O)C3CCCN3C(=O)C(Cc3ccccc3)N2C1=O (stereo not given) | 24.9 | > 100 | > 100 | > 100 | > 100 | > 100 | – | 41.2 | > 100 | – | – | – | – | – | – | – | – | – | – | –
Cc1ccccc1-n1c(=S)[nH]c2c(sc(=O)n2-c2ccccc2C)c1=O | > 100 | > 100 | > 100 | > 100 | > 100 | > 100 | > 100 | > 100 | > 100 | > 100 | – | – | – | – | – | – | – | – | – | –
COC(=O)CC1(O)C=CC(=O)C=C1 | > 22.6 | 10.3 | 6.11 | 5 | 7.47 | 29.4 | 17.9 | > 100 | 22.6 | 26.8 | – | – | – | – | – | – | – | – | – | –
CCC(C)(O)c1cn(-c2ccc(Cl)cc2)nn1 (stereo not given) | > 100 | > 100 | > 100 | > 100 | > 100 | > 100 | > 100 | > 100 | > 100 | > 100 | – | – | – | – | – | – | – | – | – | –
CN1CCN=C1c1nnn(-c2ccc([N+](=O)[O-])cc2)c1-c1ccccc1 | 61.4 | > 100 | 59 | > 100 | > 100 | > 100 | > 100 | > 100 | 94.5 | > 100 | – | – | – | – | – | – | – | – | – | –
CS(=O)(=O)c1ccc(COP(N)(=O)N(CCCl)CCCl)cc1 (stereo not given) | – | > 100 | > 100 | > 100 | > 100 | > 100 | > 100 | > 100 | > 100 | > 100 | – | – | – | – | – | – | – | – | – | –
C=C(C)[C@@H]1CCc2c(O)c(O)c(=O)cc(C)c2C1 | – | 3.49 | – | 48.3 | > 77.2 | > 100 | > 21.2 | > 20.3 | 17 | > 63 | – | – | – | – | – | – | – | – | – | –
Cc1c(Nc2nccc3cc(CN4CC[C@@H](O)C4)cnc23)cccc1-c1cccc(-c2nc3cc(CN4CC[C@@H](C(=O)O)C4)cc(C#N)c3o2)c1C | 59.7 | 22.7 | > 100 | 38.1 | 27.8 | 49 | 5.41 | 24.7 | > 100 | > 100 | 9.93 | 3.2 | 15.7 | 11.6 | 12.7 | 2 | 2.95 | 2 | > 100 | 10.2
O=C1OCC2=C1C(c1cccc(C(F)(F)F)c1)c1cc3c(cc1N2CCO)OCCO3 (stereo not given) | 2.44 | 6.97 | > 33.3 | > 33.3 | > 33.3 | > 33.3 | – | > 33.3 | > 33.3 | > 33.3 | 0.875 | 1.5 | 0.901 | 1.71 | 1.1 | – | 1.04 | 2.7 | > 33.3 | 0.997
